In patent publication US8865894B2, “Oxazolidin-2-one compounds and uses thereof” (Novartis AG, priority 2012, dated 2014) one finds IC50 data, which are given here for 23 molecules.

In the assay the target is T1, human PI3Kdelta p110 catalytic subunit (Rat-1 pBABEpuro Myr-HA-hp110 delta) (Homo sapiens, UniProt O00329).
T1 construct: Myr (myristoylation signal) (N); HA (N); expressed in transfected cells; host or cells: Rat-1
Briefly: Cellular assay PI3Kdelta (p-Akt(S473) SureFire, Rat-1_PI3Kdelta cells). The format is cell-based. As to conditions: 1 h compound treatment, read-out: Rat1-PI3Kd/ IC50. An excerpt: AlphaScreen (Amplified Luminescent Proximity Homogeneous Assay, ALPHA, Perkin Elmer) is a non-radioactive bead-based proximity assay technology to study biomolecular interactions in a homogenous microtiter plate format. The brand name SureFire denotes AlphaScreen assays that are adapted to quantify the phosphorylation of endogenous cellular proteins in cell lysates, by using matched antibody pairs, which consist of an anti-phospho-kinase and an anti-kinase antibody. The assay allows characterization of kinase signaling in cells as well as measurement of kinase inhibitor effects. The AlphaScreen technology provides several advantages over standard assay techniques such as ELISA, as it avoids time-consuming washing procedures and reduces plate handling. Furthermore, it is miniaturizable at least to a 384-well format and provides sensitivity down to the femtomolar range, dependent on the affinity of the antibodies included in the individual AlphaScreen SureFire assay kit. High sensitivity is reached by an intrinsic amplification mechanism, which involves production of singlet oxygen molecules. SureFire assay kits are commercially available for specific targets and include pairs of validated antibodies (PerkinElmer). This report describes common procedures applied for AlphaScreen SureFire assays and respective semi-automated steps for routine kinase inhibitor profiling in cell-based assays.
The Rat-1 cell lines stably overexpressing activated PI3K class I isoforms Rat-1 pBABEpuro Myr-HA-hp110 delta (Rat-1_PI3Kdelta) and Rat-1 pBABEpuro Myr-HA-hp110alpha (Rat-1_PI3Kalpha) and Rat-1 pBABEpuro Myr-HA-hp110 beta (Rat-1_PI3beta) were prepared as described (Maira S M, Stauffer F, Brueggen J, Furet P, Schnell C, Fritsch C, Brachmann S, Chène P, de Pover A, Schoemaker K, Fabbro D, Gabriel D, Simonen M, Murphy L, Finan P, Sellers W, García-Echeverría C (2008), Mol Cancer Ther. 7:1851-63 and Maira S M, Pecchi S, Brueggen J, Huh K, Schnell C, Fritsch C, Nagel T, Wiesmann M, Brachmann S, Dorsch M, Chène P, Schoemaker K, De Pover A, Menezes D, Fabbro D, Sellers W, García-Echeverría C, Voliva C F (2011), Mol. Cancer Ther., accepted). All cell lines were cultivated in complete growth medium (DMEM high glucose, 10% (v/v) fetal bovine serum, 1% (v/v) MEM NEAA, 10 mM HEPES, 2 mM L-glutamine, puromycin (10 μg/mL for Rat-1_PI3Kdelta and Rat-1_PI3Kalpha, 4 ug/mL for Rat-1_PI3beta), 1% (v/v) Pen/Strep) to 90% confluency at 37° C./5% CO2/90% humidity in a humidified CO2 incubator and were split twice a week.
The following materials were used for p-AKT(S473) detection in Rat-1 cell lysates: Dulbecco's modified Eagle's medium (DMEM) high glucose (Gibco Invitrogen, Basel, Switzerland, Cat. No. 41965), Heat Inactivated Fetal Bovine Serum, Qualified (HI FBS; Gibco Invitrogen, Basel, Switzerland, Lot. No. 16140), MEM non essential amino acids (NEAA; Gibco Invitrogen, Basel, Switzerland, Cat. No. 11140), HEPES (Gibco Invitrogen, Basel, Switzerland, Cat. No. 15630), Penicillin/Streptomycin (Pen/Strep, 100×; Gibco Invitrogen, Basel, Switzerland, Cat. No. 15140-122), L-Glutamine (Gibco Invitrogen, Basel, Switzerland, Cat. No. 25030), Puromycin (Sigma Aldrich, Buchs, Switzerland, Cat. No. P9620), DMSO (MERCK, Dietikon, Switzerland, Cat. No. 8.02912.2500), H2O, MilliQ-H2O unless otherwise stated (MILLIPORE QGARDOOR1, Millipore, Zug, Switzerland), Bovine serum albumine (BSA; Sigma Aldrich, Buchs, Switzerland Cat. No. A8412), SureFire p-Akt 1/2 (Ser473) Assay Kit (PerkinElmer, Schwerzenbach, Switzerland, Cat. No. TGRAS50K).
The p-Akt(S473) SureFire assay measures the phosphorylation of endogenous cellular Akt 1/2 at Ser473 in cell lysates. Using Rat-1 cells stably expressing myr-HA-tagged versions of the human PI3Kdelta, PI3Kalpha, or PI3Kbeta p110 catalytic subunit isoforms, the assay was developed as a two-plate protocol in a 384-well format.

Molecules are shown by their SMILES.

T1 sequence (O00329 whole entry): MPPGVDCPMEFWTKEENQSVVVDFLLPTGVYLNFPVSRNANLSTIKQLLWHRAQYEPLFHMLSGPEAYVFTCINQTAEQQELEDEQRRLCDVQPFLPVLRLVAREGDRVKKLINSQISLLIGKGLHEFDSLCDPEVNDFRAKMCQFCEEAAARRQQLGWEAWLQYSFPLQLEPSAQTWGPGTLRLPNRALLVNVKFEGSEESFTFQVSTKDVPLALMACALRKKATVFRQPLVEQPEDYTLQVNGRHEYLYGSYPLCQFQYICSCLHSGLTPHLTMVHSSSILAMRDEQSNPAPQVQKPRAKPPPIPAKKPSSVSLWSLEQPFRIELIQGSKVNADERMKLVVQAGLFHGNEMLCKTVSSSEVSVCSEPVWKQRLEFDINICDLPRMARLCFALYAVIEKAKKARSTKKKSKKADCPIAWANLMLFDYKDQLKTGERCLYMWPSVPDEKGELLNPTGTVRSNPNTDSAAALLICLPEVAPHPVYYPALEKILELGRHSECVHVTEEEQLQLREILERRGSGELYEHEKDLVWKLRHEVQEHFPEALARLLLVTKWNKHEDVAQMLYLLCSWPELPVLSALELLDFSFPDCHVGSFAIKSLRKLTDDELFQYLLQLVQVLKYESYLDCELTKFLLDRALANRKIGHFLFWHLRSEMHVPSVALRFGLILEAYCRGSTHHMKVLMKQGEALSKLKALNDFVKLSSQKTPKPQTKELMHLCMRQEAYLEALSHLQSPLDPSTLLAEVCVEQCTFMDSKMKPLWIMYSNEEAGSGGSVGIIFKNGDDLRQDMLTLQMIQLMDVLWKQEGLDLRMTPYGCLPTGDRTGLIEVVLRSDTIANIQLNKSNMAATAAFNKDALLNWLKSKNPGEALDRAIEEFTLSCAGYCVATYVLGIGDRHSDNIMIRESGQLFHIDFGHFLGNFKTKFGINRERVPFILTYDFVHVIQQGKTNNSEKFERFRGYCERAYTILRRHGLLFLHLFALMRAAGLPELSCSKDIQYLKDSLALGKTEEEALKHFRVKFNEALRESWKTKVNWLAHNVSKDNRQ
T1 sequence (Q63787 whole entry partner): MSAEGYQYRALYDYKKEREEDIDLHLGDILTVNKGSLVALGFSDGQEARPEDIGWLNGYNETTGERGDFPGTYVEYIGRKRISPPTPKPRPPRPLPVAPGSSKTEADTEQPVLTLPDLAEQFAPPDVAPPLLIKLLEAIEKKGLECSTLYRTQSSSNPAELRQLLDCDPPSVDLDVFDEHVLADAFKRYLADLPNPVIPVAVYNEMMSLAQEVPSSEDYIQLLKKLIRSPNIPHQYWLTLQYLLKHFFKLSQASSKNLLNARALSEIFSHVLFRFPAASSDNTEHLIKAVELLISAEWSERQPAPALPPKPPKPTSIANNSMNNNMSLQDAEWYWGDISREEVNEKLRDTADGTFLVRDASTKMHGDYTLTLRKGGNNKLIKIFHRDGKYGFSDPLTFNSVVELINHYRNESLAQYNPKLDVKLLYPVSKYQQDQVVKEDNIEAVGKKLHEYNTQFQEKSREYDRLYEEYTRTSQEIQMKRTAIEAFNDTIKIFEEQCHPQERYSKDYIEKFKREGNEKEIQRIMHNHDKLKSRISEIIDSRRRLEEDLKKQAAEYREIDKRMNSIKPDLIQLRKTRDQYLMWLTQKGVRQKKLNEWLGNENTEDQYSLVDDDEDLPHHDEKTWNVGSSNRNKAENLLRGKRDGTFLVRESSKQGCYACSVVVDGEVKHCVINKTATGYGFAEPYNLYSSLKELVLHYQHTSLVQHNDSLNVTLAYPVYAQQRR

As for `C[C@H]1C(CC(C)(C)O)OC(=O)N1c1cc(-c2cnc(N)nc2C(F)(F)F)nc(N2CCOCC2)n1` (mixture of isomers) [Example 26, (4S,5R)- and (4S,5S)-3-(2′-amino-2-morpholino-4′-(trifluoromethyl)-[4,5′-bipyrimidin]-6-yl)-5-(2-hydroxy-2-methylpropyl)-4-methyloxazolidin-2-one], the IC50 came out at 11 nM. The result for `CC1(CO)COC(=O)N1c1cc(-c2cnc(N)nc2C(F)(F)F)nc(N2CCOCC2)n1` (racemic) [Example 3, 3-(2′-amino-2-morpholino-4′-(trifluoromethyl)-4,5′-bipyrimidin-6-yl)-4-(hydroxymethyl)-4-methyloxazolidin-2-one] reads 73 nM; that for `Nc1ncc(-c2cc(N3C(=O)O[C@@H]4[C@@H](O)CC[C@@H]43)nc(N3CCOCC3)n2)c(C(F)(F)F)n1` (racemic) [Example 22, (3aR*,6R*,6aR*)-3-(2′-Amino-2-morpholino-4′-(trifluoromethyl)-[4,5′-bipyrimidin]-6-yl)-6-hydroxyhexahydro-2H-cyclopenta[d]oxazol-2-one], 27 nM. With `Nc1ncc(-c2cc(N3C(=O)OC4C(O)CCC43)nc(N3CCOCC3)n2)c(C(F)(F)F)n1` (single isomer, unassigned) [Example 22A], the IC50 amounted to 27 nM. The result for `Nc1ncc(-c2cc(N3C(=O)OC4C(O)CCC43)nc(N3CCOCC3)n2)c(C(F)(F)F)n1` (single isomer, unassigned) [Example 22B] reads 5 nM. Consider `C[C@@H](O)C[C@H]1OC(=O)N(c2cc(-c3cnc(N)nc3C(F)(F)F)nc(N3CCOCC3)n2)[C@H]1C` (single isomer, unassigned) [Example 24], for which the IC50 is 7 nM.

With `C[C@H](O)CC1OC(=O)N(c2cc(-c3cnc(N)nc3C(F)(F)F)nc(N3CCOCC3)n2)[C@H]1C` (single isomer, unassigned) [Example 25], the IC50 was 13 nM. The result for `C[C@H]1COC(=O)N1c1cc(-c2cnc(N)nc2C(F)(F)F)nc(N2CCOCC2)n1` [Example 1, (S)-3-(2′-Amino-2-morpholin-4-yl-4′-trifluoromethyl-[4,5′]bipyrimidinyl-6-yl)-4-methyl-oxazolidin-2-one] reads 27 nM; that for `CC1(C)OC(=O)N(c2cc(-c3cnc(N)nc3C(F)(F)F)nc(N3CCOCC3)n2)[C@H]1CO` [Example 2, (S)-3-(2′-Amino-2-morpholin-4-yl-4′-trifluoromethyl-[4,5′]bipyrimidinyl-6-yl)-4-hydroxymethyl-5,5-dimethyl-oxazolidin-2-one], 81 nM; that for `Nc1ncc(-c2cc(N3C(=O)O[C@H]4CCCC[C@@H]43)nc(N3CCOCC3)n2)c(C(F)(F)F)n1` [Example 4, (3aS,7aS)-3-(2′-Amino-2-morpholin-4-yl-4′-trifluoromethyl-[4,5′]bipyrimidinyl-6-yl)-hexahydro-benzooxazol-2-one], 13 nM. The result for `COC[C@H]1COC(=O)N1c1cc(-c2cnc(N)nc2C(F)(F)F)nc(N2CCOCC2)n1` [Example 5, (S)-3-(2′-Amino-2-morpholin-4-yl-4′-trifluoromethyl-[4,5′]bipyrimidinyl-6-yl)-4-methoxymethyl-oxazolidin-2-one] reads 23 nM; that for `C[C@@H]1OC(=O)N(c2cc(-c3cnc(N)nc3C(F)(F)F)nc(N3CCOCC3)n2)[C@H]1CO` [Example 6], 37 nM; that for `[2H]C1([2H])OC([2H])([2H])C([2H])([2H])N(c2nc(-c3cnc(N)nc3C(F)(F)F)cc(N3C(=O)O[C@H](C)[C@@H]3CO)n2)C1([2H])[2H]` [Example 8], 54 nM. The result for `Nc1ncc(-c2cc(N3C(=O)OC[C@@H]3CCO)nc(N3CCOCC3)n2)c(C(F)(F)F)n1` [Example 9, (S)-3-(2′-Amino-2-morpholin-4-yl-4′-trifluoromethyl-[4,5′]bipyrimidinyl-6-yl)-4-(2-hydroxy-ethyl)-oxazolidin-2-one] reads 78 nM; that for `C[C@H]1OC(=O)N(c2cc(-c3cnc(N)nc3C(F)(F)F)nc(N3CCOC[C@@H]3C)n2)[C@H]1CO` [Example 10, (4S,5R)-3-[2′-Amino-2-((S)-3-methyl-morpholin-4-yl)-4′-trifluoromethyl-[4,5′]bipyrimidinyl-6-yl]-4-hydroxymethyl-5-methyl-oxazolidin-2-one], 52 nM; that for `Nc1ncc(-c2cc(N3CCOC3=O)nc(N3CCOCC3)n2)c(C(F)(F)F)n1` [Example 11, 3-(2′-Amino-2-morpholin-4-yl-4′-trifluoromethyl-[4,5′]bipyrimidinyl-6-yl)-oxazolidin-2-one, reference compound], 138 nM. With `C[C@H]1OC(=O)N(c2cc(-c3cnc(N)nc3C(F)(F)F)nc(N3CCOCC3)n2)[C@H]1COC=O` [Example 12, Formic acid (4S,5R)-3-(2′-amino-2-morpholin-4-yl-4′-trifluoromethyl-[4,5′]bipyrimidinyl-6-yl)-5-methyl-2-oxo-oxazolidin-4-ylmethyl ester], the IC50 came out at 92 nM. Consider `C[C@H]1COCCN1c1nc(-c2cnc(N)nc2C(F)(F)F)cc(N2C(=O)OC[C@@H]2C)n1` [Example 13, (S)-3-[2′-Amino-2-((S)-3-methyl-morpholin-4-yl)-4′-trifluoromethyl-[4,5′]bipyrimidinyl-6-yl]-4-methyl-oxazolidin-2-one], for which the IC50 stood at 42 nM.

As for `Nc1ncc(-c2cc(N3C[C@@H](CO)OC3=O)nc(N3CCOCC3)n2)c(C(F)(F)F)n1` [Example 14, (S)-3-(2′-Amino-2-morpholin-4-yl-4′-trifluoromethyl-[4,5′]bipyrimidinyl-6-yl)-5-hydroxymethyl-oxazolidin-2-one], the IC50 was determined as 101 nM.

With `C[C@H]1[C@H](CO)OC(=O)N1c1cc(-c2cnc(N)nc2C(F)(F)F)nc(N2CCOCC2)n1` [Example 15, (4S,5R)-3-(2′-Amino-2-morpholin-4-yl-4′-trifluoromethyl-[4,5′]bipyrimidinyl-6-yl)-5-hydroxymethyl-4-methyl-oxazolidin-2-one], the IC50 is 53 nM.

As to `C[C@H]1CN(c2cc(-c3cnc(N)nc3C(F)(F)F)nc(N3CCOCC3)n2)C(=O)O1` [Example 16, (S)-3-(2′-Amino-2-morpholin-4-yl-4′-trifluoromethyl-[4,5′]bipyrimidinyl-6-yl)-5-methyl-oxazolidin-2-one], the IC50 was found to be 87 nM. With `[2H]C1([2H])OC([2H])([2H])C([2H])([2H])N(c2nc(-c3cnc(N)nc3C(F)(F)F)cc(N3C(=O)OC[C@@H]3C)n2)C1([2H])[2H]` [Example 17, (S)-3-(2′-amino-2-D8-morpholino-4′-(trifluoromethyl)-[4,5′-bipyrimidin]-6-yl)-4-methyloxazolidin-2-one], the IC50 amounted to 155 nM.

For the molecule `C[C@H]1OC(=O)N(c2cc(-c3cnc(N)nc3C(F)(F)F)nc(N3CCOCC3)n2)[C@H]1CO` [Example 18, (4S,5R)-3-(2′-Amino-2-morpholin-4-yl-4′-trifluoromethyl-[4,5′]bipyrimidinyl-6-yl)-4-hydroxymethyl-5-methyl-oxazolidin-2-one], the IC50 came to 28 nM.
